Measurements published in patent publication US20240390238A1, “MINIMALIST EMULSION COMPOSITIONS” (Baek Clinical Inc., priority 2021, published 2024).
Values belong to the compound of their own block, whether it stands above or below them.

Experiments:
[1] = Solubility of optional additional components in the solvents; format: physicochemical
Source text: Additional ingredients were chosen for their compatibility with (e.g., miscibility in) 1,3 propanediol, 1,2 propanediol, and 1,3 butanediol.

[2] = Method: A series of experiments were performed to assess and optimize the components of the subject vitamin C formulations. […] U refers to urea. % values are wt %
[3] = Comparative studies of prior-art ascorbic acid solutions; format: physicochemical; details: ascorbic acid with urea in propylene glycol, butylene glycol and propanediol
Method: This example was reproduced.
All mixtures were heated to 85° C.

erythema (skin redness) = details: concentrations of 0.2%; clinical data from SEPPIC; cited from earlier work

Compound: O=C(O)CCCCCCCC(=O)O [AzA, Azelaic acid, reference compound]
Concentration solubilized in 1,3 propanediol [1]: up to 10%
Solubility in 1,3 propanediol in the presence of hydroxyethyl urea [1]: slightly increased
Concentration solubilized in a 1,3 propanediol base ([1]; with 10% AA, 5% U): 7.5%

Compound: CC1(C)[C@@H](O[C@H]2O[C@H](C(=O)O)[C@@H](O)[C@H](O)[C@H]2O[C@@H]2O[C@H](C(=O)O)[C@@H](O)[C@H](O)[C@H]2O)CC[C@]2(C)[C@H]3C(=O)C=C4[C@@H]5C[C@@](C)(C(=O)O)CC[C@]5(C)CC[C@@]4(C)[C@]3(C)CC[C@@H]12 [glycyrrhizic acid, Glycyrrhizic acid]
Solubility in 1,3-propanediol ([1]; unlike 18B-glycyrrhetinic acid): shows solubility

Compound: madecassoside
Solubility in 1,3 propanediol, 1,2 propanediol and 1,3 butanediol ([1]; at a concentration of 0.2%): soluble
Erythema (skin redness) (erythema (skin redness)): desirable ability to reduce erythema

Other lines, results leading:

Solubility in 1,3 propanediol, 1,2 propanediol and 1,3 butanediol ([1]; at the desired concentrations (0.5-1%)): readily soluble
Compound: COc1cc(CC(C(C)=O)C(C)=O)ccc1O [Acetyl zingerone]

Minimum amount U required to solubilize 20% AA [2]: ~10%
Solubility of U in 1,3 propanediol (saturation reached before recrystallization of U) [2]: ~27.8%
Maximum concentrations soluble before urea starts to precipitate (the ceiling) [3]: 20%
Compound: NC(N)=O [urea]
